Values joined by “and” are separate entries in the source; they are usually repeats but may differ in a detail not shown here. Equal values may be shown once.
Columns and labels:
human rChAT [1] = biological target: T1, human rChAT (Homo sapiens, UniProt P28329); assay: In vitro ChAT activity inhibition fluorometric assay and kinetic studies; format: biochemical; settings: for inhibition at 100 µM: read-out: ChAT % IR (inhibition rate)
T1 construct: made in house; host or cells: E. coli BL21 Rosetta2
T1 sequence (P28329 1-630 isoform P28329-3): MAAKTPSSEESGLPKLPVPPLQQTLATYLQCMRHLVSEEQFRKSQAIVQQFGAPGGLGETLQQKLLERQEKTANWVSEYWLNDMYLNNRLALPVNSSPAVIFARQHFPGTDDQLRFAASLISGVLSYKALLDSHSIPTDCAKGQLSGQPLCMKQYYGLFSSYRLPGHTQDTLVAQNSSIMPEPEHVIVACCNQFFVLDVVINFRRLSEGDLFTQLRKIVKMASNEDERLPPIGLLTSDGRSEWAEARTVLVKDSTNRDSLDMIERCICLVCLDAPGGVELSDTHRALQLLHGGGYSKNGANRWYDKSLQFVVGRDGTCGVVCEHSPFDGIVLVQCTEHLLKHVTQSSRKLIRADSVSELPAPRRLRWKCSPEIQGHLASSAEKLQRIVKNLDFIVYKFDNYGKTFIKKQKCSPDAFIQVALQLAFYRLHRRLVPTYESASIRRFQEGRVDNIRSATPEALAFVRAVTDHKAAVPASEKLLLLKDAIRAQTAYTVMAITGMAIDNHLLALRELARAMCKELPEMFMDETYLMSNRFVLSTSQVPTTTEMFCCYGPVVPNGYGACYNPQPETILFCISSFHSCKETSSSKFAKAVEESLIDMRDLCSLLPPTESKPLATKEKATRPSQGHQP
Description: ChAT activity was measured using our newly developed fluorometric assay, using human recombinant ChAT (rChAT) protein. The reagents, choline chloride, acetyl coenzyme-A (ACoA, A2181) and 7-Diethylamino-3-(4-maleimidophenyl)-4-methylcoumarin (CPM) were purchased from Sigma-Aldrich (St. Louis, MO, USA).
The ChAT assay could be run in either 96-well or 384-well plates. For 96-well plates, 50 μL/well of 0.212 µg/ml (final concentration) of the recombinant ChAT was incubated with 100 μM different Asinex compounds (50 μL/well) for 10–30 minutes at room temperature in dilution buffer (10 mM Tris-HCl, pH 7.4, 150 mM NaCl, 1.0 mM EDTA, 0.05% (v/v) Triton X-100). Then, 50 µL of a cocktail-A [dilution buffer containing choline chloride (final concentration 150 µM), ACoA (final concentration 13.3 µM) and CPM (final concentration 15 µM)] was added to each well. Immediately after adding the cocktail-A, the changes in fluorescence was monitored kinetically at 479 nm after exciting at 390 nm at 1–2 minute intervals for 15–20 minutes using a microplate spectrophotometer reader (Infinite M1000, Tecan).
Each Asinex compounds were run in triplicates. On each 96-wells plate, several enzyme wells without inhibitor were also included during measurements as control and for estimating the inhibition level. Negative controls were wells without enzyme. The percentage inhibition for each Asinex compound was calculated based on the enzyme control value as a reference (100% activity). The compounds showing over 50% inhibition of enzyme activity were selected for further kinetic studies.
(§1) For kinetic studies, a similar protocol as inhibition assay was followed; a dilution series of five different concentrations ranging from 10^−6 to 10^−9 M were prepared for each selected Asinex compounds. For ChAT, the A-CoA was kept constant at 10 μM (final) but the concentration of choline chloride varied between 320–10 μM. For BuChE, BTC was used as the substrate in the concentrations ranging from 0.0625 to 2 mM. For AChE, ATC was used as the substrate in the concentrations ranging from 0.0312 to 1 mM. Each compound concentration was measured in duplicates. The rate of enzyme activity (as ∆OD/hr kinetic data) was calculated and processed using the GraphPad Prism 7 analysis software. The inhibitory constant (Ki) values were determined from the dose-response curve and the half-maximal inhibitory concentration (IC50) values were calculated by plotting the percentage enzyme activity vs. the log of the Asinex compound concentrations and fitting the data using the nonlinear regression Enzyme Kinetics-Inhibition function.
The Michaelis-Menten constant (Km) and maximal velocity (Vmax) values were calculated from substrate-velocity curve after fitting the data with non-linear regression Michaelis-Menten kinetic function. The Km and Vmax values were further used to plot the Lineweaver-Burk plots; the plots were fitted using linear regression function.

recombinant human AChE = biological target: T2, recombinant human AChE (Homo sapiens, UniProt P22303); assay: Modified Ellman's colorimetric assay for AChE and kinetic studies; format: biochemical; settings: for inhibition at 200 µM: read-out: AChE % IR (inhibition rate); for Ki / IC50: mean of two experiments; for IC50: substrate ATC 0.5 mM
T2 construct: purchased Sigma C1682
T2 sequence (P22303 32-614): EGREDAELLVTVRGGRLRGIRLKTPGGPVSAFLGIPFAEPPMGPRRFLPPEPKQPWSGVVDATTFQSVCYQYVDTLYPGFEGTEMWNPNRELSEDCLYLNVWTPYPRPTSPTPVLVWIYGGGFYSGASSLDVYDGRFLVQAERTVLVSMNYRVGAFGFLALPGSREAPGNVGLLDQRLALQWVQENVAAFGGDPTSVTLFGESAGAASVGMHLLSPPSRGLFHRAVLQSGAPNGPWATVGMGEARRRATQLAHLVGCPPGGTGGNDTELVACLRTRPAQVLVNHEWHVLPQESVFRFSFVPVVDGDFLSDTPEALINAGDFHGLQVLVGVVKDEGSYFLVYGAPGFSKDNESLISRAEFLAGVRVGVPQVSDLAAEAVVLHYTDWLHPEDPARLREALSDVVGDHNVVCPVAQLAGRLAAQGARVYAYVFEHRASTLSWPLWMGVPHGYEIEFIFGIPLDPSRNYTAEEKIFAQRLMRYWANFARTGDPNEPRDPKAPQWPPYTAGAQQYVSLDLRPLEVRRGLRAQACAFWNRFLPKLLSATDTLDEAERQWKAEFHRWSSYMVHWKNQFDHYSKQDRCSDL
Source text: (§2) A modified version of Ellman’s colorimetric assay[16],[17] was adapted to a high throughput assay for the enzymatic activity of BuChE and AChE. The reagent, butyrylthiocholine iodide (BTC), acetylthiocholine iodide (ATC), 5,5′-dithiobis (2-nitrobenzoic acid) (DTNB) were purchased from Sigma-Aldrich (St. Louis, MO, USA). The modified assay details are as previously described[34],[35]. The main modification concerned with the high throughput adaptation of the assay for use in 384-well plates. Briefly, 25 μL/well of a 1:450 diluted solution of a pooled human plasma and 1:768 diluted (3.5 ng/ml final concentration) purified recombinant human AChE protein (Sigma, Cat no. C1682) was used for measurement of BuChE and AChE activity, respectively. In the initial in vitro screening step, the wells were pre-incubated with 25 μL/wells of different Asinex compounds for 10–30 minutes at room temperature. The concentration of the compounds working solution was 3X to give a final concentration of 200 μM in a final volume of 75 μL in each well. The stock concentration of the compounds were prepared in 100% DMSO. The stock concentration was chosen usually at 10 mM, allowing the final DMSO concentration in the wells to be less than 4%. Finally, 25 μL of a cocktail mix prepared in Na/K phosphate buffer, containing DTNB (final concentration 0.4 mM) and BTC, (final concentration 1 mM) or ATC (final concentration 0.5 mM) was added to each well and the changes in absorbance was monitored at 412 nm wavelength for 15–20 minutes with one-minute interval, using a microplate spectrophotometer reader (Infinite M1000, Tecan). The rate of the enzyme activity was determined from the linear part of the kinetic reaction curves as ∆OD/time.
as §1

plasma BuChE = biological target: T3, plasma BuChE (Homo sapiens, UniProt P06276); assay: Modified Ellman's colorimetric assay for BuChE (pooled human plasma) and kinetic studies; format: biochemical; settings: for inhibition at 200 µM: read-out: BuChE % IR (inhibition rate)
T3 construct: 1:450 diluted solution of a pooled human plasma; from tissue; host or cells: pooled human plasma
T3 sequence (P06276 29-602): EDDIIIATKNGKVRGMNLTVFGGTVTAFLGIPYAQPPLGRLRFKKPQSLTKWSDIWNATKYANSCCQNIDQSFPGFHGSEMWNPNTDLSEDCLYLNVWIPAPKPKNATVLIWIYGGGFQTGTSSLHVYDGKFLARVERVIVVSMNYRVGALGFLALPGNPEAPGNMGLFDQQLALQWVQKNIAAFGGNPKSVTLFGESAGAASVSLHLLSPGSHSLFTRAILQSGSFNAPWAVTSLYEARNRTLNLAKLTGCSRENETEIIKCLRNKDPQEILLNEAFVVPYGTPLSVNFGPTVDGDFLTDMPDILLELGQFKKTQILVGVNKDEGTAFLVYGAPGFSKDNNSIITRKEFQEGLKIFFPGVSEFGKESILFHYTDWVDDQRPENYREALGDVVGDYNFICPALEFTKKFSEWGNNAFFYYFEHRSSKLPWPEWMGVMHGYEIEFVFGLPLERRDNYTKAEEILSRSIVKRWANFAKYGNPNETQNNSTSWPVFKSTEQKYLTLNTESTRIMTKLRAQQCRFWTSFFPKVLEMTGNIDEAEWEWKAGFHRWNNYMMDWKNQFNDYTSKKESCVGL
Source text: as §2, §1

HEK 293 cells = assay: MTT cell viability assay; format: cell-based; settings: overnight, control cells 100%, mean ± SD of 3 readings
Description: Finally, to assess the prospective of the identified compounds for further development into ChAT ligands, we assessed the compounds active against ChAT, AChE and BuChE, for their cellular toxicity on human embryonic kidney (HEK 293) cells using the cell viability 3-(4,5-dimethylthiazol-2-yl)-2,5-diphenyltetrazolium bromide (MTT) assay. All compounds were evaluated at 10 and 50 µM concentrations. The cell viability data is given in Table 4 (also represented as a bar chart in Fig. 9).
The in vitro cellular toxicity of the active compounds was evaluated using MTT assay. Briefly, Human embryonic kidney epithelial (HEK-293) cells cultured at 37 °C in a humidified environment with 5% CO2 in Dulbecco’s Modified Eagle’s medium (DMEM) in 96 well plate to obtain 70–80% confluency. Further, the cells were incubated overnight at 37 °C with 10 µM and 50 µM compounds in triplicate. Cells treated with 1% DMSO were used as controls. At the end of the treatment (12 h), 10 μL of 12 mM MTT dissolved in Phosphate buffer saline pH 7.4, was added to each well and incubated for an additional 2 h at 37 °C. The media was then removed from the plate and 100 µL of DMSO was added to dissolve the violet formazan crystals. Finally, the absorbance was measured at 540 nm with a reference wavelength of 630 nm on Tecan spectrophotometer with shaking before the reading. The percentage viability was calculated taking 1% DMSO control as 100 percent and presented as mean ± SD.

human rChAT [2] = biological target: T1, human rChAT; assay: In vitro ChAT activity inhibition fluorometric assay and kinetic studies; format: biochemical; settings: mean ± SEM of two experiments
ChAT = tested on: ChAT; parameters: method as in PMID 27507101; settings: as previously reported by our group ref 26; cited from earlier work
[3] = 100 µM compound, compared to control, mean of three experiments in triplicate
[4] = 200 µM compound, compared to control, mean of three experiments in triplicate
[5] = substrate BTC 1 mM, mean of two experiments
[6] = Lineweaver-Burk plot and nonlinear regression fit
[7] = 200 µM compound, compared to control, mean of three experiments in triplicate, 200 µM

| Structure (SMILES) | inhibition at 100 µM (human rChAT [1]; [3]) [%] | inhibition at 200 µM (recombinant human AChE; [4]) [%] | Ki (plasma BuChE; mean of two experiments) [µM] | IC50 (plasma BuChE; [5]) | % of cell proliferation (HEK 293 cells; 10 µM) [%] | % of cell proliferation (HEK 293 cells; 50 µM) [%] | inhibition at 200 µM (plasma BuChE; [4]) [%] | Ki (recombinant human AChE) [µM] | IC50 (recombinant human AChE) | also measured |
| --- | --- | --- | --- | --- | --- | --- | --- | --- | --- | --- |
| CCn1c(CNC(=O)COc2ccccc2F)cc2ccccc21 [Compound C2] | 0 | 0 | 59.6 | ~365 µM and 365 µM | 87.7 ± 5.0 | 76.2 ± 7.6 | – | – | – | mode of inhibition of BuChE (plasma BuChE; Lineweaver-Burk plot and nonlinear regression analysis): competitive mode of inhibition |
| O=C(NC1CCCC1)c1ccc(CN2CCN(Cc3ccccc3)CC2)cc1 [Compound A2] | 6.9 | 0 | 84.9 | 527 µM | 62.1 ± 4.0 | 72.2 ± 13.1 | > 50 | – | – | – |
| CCn1c(CNC(=O)COc2ccc(F)cc2)cc2ccccc21 [Compound C4] | 0 | 4.9 | 59.4 | 528 µM | 82.4 ± 4.5 | 84.0 ± 10.0 | > 50 | – | – | – |
| CCc1ccc2[nH]c3nc(SCCC(=O)N4CCCCCC4)nnc3c2c1 [Compound B1] | – | 9 | – | – | – | – | 15 | – | – | mode of inhibition of human rChAT (human rChAT [1]; [6]): mixed-model inhibition; Vmax of rChAT (human rChAT [1]; inhibitor 0.4 µM, mean ± SEM of two experiments): 247.3 ± 17.8 µM/min; Ki (human rChAT [1]; mean of two experiments): ~9.4 µM and 9.4 µM; IC50 (human rChAT [1]; substrate concentrations 20 to 80 µM, mean of two experiments): ~7 µM and 7 µM; AChE % IR (inhibition rate) (recombinant human AChE; [7]): 9.1%; BuChE % IR (inhibition rate) (plasma BuChE; [7]): 14.8%; Vmax of rChAT (human rChAT [2]; inhibitor 2.0 µM): 189.6 ± 17.3 µM/min; Vmax of rChAT (human rChAT [2]; inhibitor 10.0 µM): 154.3 ± 13.4 µM/min; Vmax of rChAT (human rChAT [2]; inhibitor 50.0 µM): 73.5 ± 9.7 µM/min; Vmax of rChAT (human rChAT [2]; inhibitor 250.0 µM): 54.9 ± 6.8 µM/min |
| O=C(NCc1ccc(CN2CCCCC2)cc1)c1nc(-c2ccc(C(F)(F)F)cc2)no1 [Compound C5] | 0 | – | – | – | 78.9 ± 3.3 | 36.1 ± 2.4 | > 50 | 23.7 | ~6.3 µM and 6.3 µM | mode of inhibition of AChE (recombinant human AChE; [6]): non-competitive mode of inhibition; BuChE IC50 (plasma BuChE; [5]): could not be calculated due to lack of complete inhibition even at the highest tested concentration of 300 µM |
| CCN(CC)C(=O)c1cccc(Nc2ccc(-c3ccccc3OC)nn2)c1 [Compound D3] | 0 | > 50 | – | – | 79.2 ± 2.5 | 66.2 ± 4.0 | 20.7 | 177 | 251 µM | – |
| C[N+](C)(C)CCC(=O)c1cccc2ccccc12.[I-] [α-NETA, 2-(alpha-naphthoyl)ethyltrimethylammonium iodide, reference compound] | 93 | – | – | – | – | – | – | – | – | ChAT % IR (inhibition rate) (human rChAT [1]; 100 µM compound, compared to control, mean of three experiments in triplicate, 100 µM): 93.7%; IC50 (ChAT): 0.1 µM |
| COc1cc(CN2CCN(Cc3ccccc3Cl)CC2)c([N+](=O)[O-])cc1OC [Compound D4] | 3.5 | – | – | – | 84.0 ± 3.8 | 68.1 ± 1.4 | 18.2 | 141 | 146 µM | – |

Reference: PMC5701137, “Discovery of novel choline acetyltransferase inhibitors using structure-based virtual screening” (Scientific Reports, 2017)
